pIC50: −log10 of the molar value.

H1047R PIK3CA enzyme, sequence (P42336 whole entry H1047R): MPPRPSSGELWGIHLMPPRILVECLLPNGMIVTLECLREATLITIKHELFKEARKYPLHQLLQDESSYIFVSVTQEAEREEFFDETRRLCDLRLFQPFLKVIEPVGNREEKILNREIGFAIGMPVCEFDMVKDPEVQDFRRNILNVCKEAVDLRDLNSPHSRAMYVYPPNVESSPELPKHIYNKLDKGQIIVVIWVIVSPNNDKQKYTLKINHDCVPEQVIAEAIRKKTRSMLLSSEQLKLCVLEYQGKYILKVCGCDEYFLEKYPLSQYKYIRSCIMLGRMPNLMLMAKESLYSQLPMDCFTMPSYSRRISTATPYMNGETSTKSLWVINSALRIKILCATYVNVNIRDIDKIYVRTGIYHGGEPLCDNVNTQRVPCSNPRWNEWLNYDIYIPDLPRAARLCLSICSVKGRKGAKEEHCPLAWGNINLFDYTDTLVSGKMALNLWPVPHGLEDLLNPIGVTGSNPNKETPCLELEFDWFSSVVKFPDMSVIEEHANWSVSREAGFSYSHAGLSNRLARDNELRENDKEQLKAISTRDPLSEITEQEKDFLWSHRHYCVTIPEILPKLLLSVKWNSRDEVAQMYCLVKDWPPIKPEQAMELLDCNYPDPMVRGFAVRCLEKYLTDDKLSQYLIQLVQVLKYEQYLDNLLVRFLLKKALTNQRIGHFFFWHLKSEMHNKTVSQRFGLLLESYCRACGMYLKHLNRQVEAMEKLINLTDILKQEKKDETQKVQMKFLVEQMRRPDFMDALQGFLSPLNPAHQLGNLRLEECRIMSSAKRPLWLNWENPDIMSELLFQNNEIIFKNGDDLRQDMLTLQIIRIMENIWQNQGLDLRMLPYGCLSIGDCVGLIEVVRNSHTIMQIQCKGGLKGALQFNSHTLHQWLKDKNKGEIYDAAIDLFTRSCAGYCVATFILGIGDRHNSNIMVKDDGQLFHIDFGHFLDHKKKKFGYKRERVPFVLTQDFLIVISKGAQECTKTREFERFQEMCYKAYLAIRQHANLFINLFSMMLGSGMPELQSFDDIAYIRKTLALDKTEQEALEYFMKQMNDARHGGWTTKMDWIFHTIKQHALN
H1047R PIK3CA enzyme, sequence (P27986 whole entry partner): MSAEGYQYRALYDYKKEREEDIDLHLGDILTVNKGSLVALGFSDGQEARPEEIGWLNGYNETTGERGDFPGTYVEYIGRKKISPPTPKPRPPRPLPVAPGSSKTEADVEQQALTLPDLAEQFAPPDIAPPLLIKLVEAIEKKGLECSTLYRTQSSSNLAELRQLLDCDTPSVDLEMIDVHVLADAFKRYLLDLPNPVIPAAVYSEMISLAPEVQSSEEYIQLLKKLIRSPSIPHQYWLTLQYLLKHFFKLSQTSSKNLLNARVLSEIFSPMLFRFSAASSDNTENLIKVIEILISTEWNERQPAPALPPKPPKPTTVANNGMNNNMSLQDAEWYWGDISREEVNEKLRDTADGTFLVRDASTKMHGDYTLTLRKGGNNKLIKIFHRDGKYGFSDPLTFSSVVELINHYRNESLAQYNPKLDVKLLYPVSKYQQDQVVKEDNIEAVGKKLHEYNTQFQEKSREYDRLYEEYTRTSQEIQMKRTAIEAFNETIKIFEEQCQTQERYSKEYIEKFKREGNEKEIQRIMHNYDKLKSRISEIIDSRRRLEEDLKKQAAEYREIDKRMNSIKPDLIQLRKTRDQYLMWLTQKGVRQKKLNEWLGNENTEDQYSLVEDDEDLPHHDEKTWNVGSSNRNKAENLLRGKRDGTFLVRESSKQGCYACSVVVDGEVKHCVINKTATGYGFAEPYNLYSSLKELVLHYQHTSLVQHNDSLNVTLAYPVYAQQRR

The target in this experiment is H1047R PIK3CA enzyme (Homo sapiens, UniProt P42336, H1047R). Description: ADP-Glo Biochemical PIK3CA Kinase Assay. As for the experimental part:
Compounds to be assayed were plated in 16 doses of 1:2 serial dilutions (20 nL volume each well) on a 1536-well plate, and the plate warmed to room temperature. PIK3CA enzyme (e.g. H1047R, E542K, E545K, or wild-type) (1 μL of 2 nM solution in Enzyme Assay Buffer (comprising 50 mM HEPES pH 7.4, 50 mM NaCl, 6 mM MgCl2, 5 mM DTT and 0.03% CHAPS)) was added and shaken for 10 seconds and preincubated for 30 minutes. To the well was added 1 μL of 200 μM ATP and 20 μM of diC8-PIP2 in Substrate Assay Buffer (50 mM HEPES pH7.4, 50 mM NaCl, 5 mM DTT and 0.03% CHAPS) to start the reaction, and the plate was shaken for 10 seconds, then spun briefly at 1500 rpm, and then incubated for 60 minutes at room temperature. The reaction was stopped by adding 2 μL of ADP-Glo reagent (Promega), and spinning briefly at 1500 rpm, and then incubating for 40 minutes. ADP-Glo Detection reagent (Promega) was added and the plate spun briefly at 1500 rpm, then incubated for 30 minutes.
A word on the pIC50: it is the IC50 on a negative log10 scale, so that one unit is a factor of ten. A higher pIC50 goes with a small IC50. As for `Cc1ccccc1Nc1ncc(-c2cnn(C)c2)cc1NC(=O)c1cccc2cn(C)nc12` [I-121], the pIC50 was 4.00 to 5.00.

In turn, `Cc1ccccc1Nc1ncc(-c2cnn(C)c2)cc1NC(=O)c1ccc(OC(F)(F)F)cc1` [I-122] had a pIC50 of 4.00 to 5.00.

In the case of `Cc1ccccc1Nc1ncc(-c2cnn(C)c2)cc1NC(=O)c1ccc(S(C)(=O)=O)cc1` [I-123], the pIC50 was 4.00 to 5.00.

`COc1cccc(C(=O)Nc2cc(-c3cnn(C)c3)cnc2Nc2ccccc2C)c1` [I-124] had a pIC50 of 4.00 to 5.00.

Regarding `Cc1ccccc1Nc1ncc(-c2cnn(C)c2)cc1NC(=O)c1cccc2cccnc12` [I-125], the pIC50 was 4.00 to 5.00.

In turn, `COc1ccc(C(=O)Nc2cc(-c3cnn(C)c3)cnc2Nc2ccccc2C)cc1` [I-126] gave a pIC50 of 4.00 to 5.00.

In turn, `Cc1ccccc1Nc1ncc(-c2cnn(C)c2)cc1NC(=O)c1ccccc1C` [I-127] had a pIC50 of 4.00 to 5.00.

Take `Cc1ccccc1Nc1ncc(-c2cnn(C)c2)cc1NC(=O)c1ccccc1S(C)(=O)=O` [I-128]: the pIC50 is 4.00 to 5.00.

For `Cc1ccccc1Nc1ncc(-c2cnn(C)c2)cc1NC(=O)c1ccc(S(N)(=O)=O)cc1` [I-129], the pIC50 is 4.00 to 5.00.

Consider `Cc1ccccc1Nc1ncc(-c2cnn(C)c2)cc1NC(=O)c1ccccc1O` [I-130], for which the pIC50 is 4.00 to 5.00.

Turning to `Cc1ccccc1Nc1ncc(-c2cnn(C)c2)cc1NC(=O)c1cc2ccccc2s1` [I-131], the pIC50 is 4.00 to 5.00.

Regarding `Cc1ccccc1Nc1ncc(-c2cnn(C)c2)cc1NC(=O)c1cc2ccccc2n1C` [I-132], the pIC50 is 5.00 to 6.00.

Turning to `O=C(Nc1cccnc1NCc1ccccc1)c1csc2ccccc12` [I-133], the negative-log IC50 (pIC50) is 4.00 to 5.00.

As to `COCCNc1ncccc1NC(=O)c1csc2ccccc12` [I-134], the pIC50 is 4.00 to 5.00.

`CNC(=O)c1cnc(Nc2ccccc2C)c(NC(=O)Cc2ccccc2Cl)c1` [I-140]: the pIC50 is 4.00 to 5.00.

`CNC(=O)c1cnc(Nc2ccccc2C)c(NC(=O)c2cc(F)cc(F)c2)c1` [I-141]: the pIC50 was 5.00 to 6.00.

As to `CNC(=O)c1cnc(Nc2ccccc2C)c(NC(=O)c2cccc(F)c2)c1` [I-143], the pIC50 was 4.00 to 5.00.

`Cc1ccccc1Nc1ncc(-c2cnn(C)c2)cc1NC(=O)c1csc2ccc(Cl)cc12` [I-145] gave a pIC50 of 5.00 to 6.00.

`Cc1ccccc1Nc1ncc(-c2cnn(CCO)c2)cc1NC(=O)c1cc(F)cc(C(F)(F)F)c1` [I-147] gave a pIC50 of 6.00 to 6.30.

In turn, `COCCn1cc(-c2cnc(Nc3ccccc3C)c(NC(=O)c3cc(F)cc(C(F)(F)F)c3)c2)cn1` [I-148] gave a negative logarithm of the IC50 (pIC50) of 6.00 to 6.30.

In turn, `CC(C)(C)OC(=O)N1CCC(Nc2ncccc2NC(=O)c2csc3ccccc23)CC1` [I-151] showed a pIC50 of 4.00 to 5.00.

`O=C(Nc1cccnc1NC1CCNCC1)c1csc2ccccc12` [I-152]: the pIC50 was 4.00 to 5.00.

Consider `O=C(Nc1cccnc1NC1CCCCC1)c1csc2ccccc12` [I-153], for which the pIC50 was 4.00 to 5.00.

Compound `Cc1ccccc1Nc1ncc(NC(=O)CC#N)cc1NC(=O)c1cc(F)cc(C(F)(F)F)c1` [I-154] showed a pIC50 of 5.00 to 6.00.

Consider `Cc1ccccc1Nc1ncc(NCC#N)cc1NC(=O)c1cc(F)cc(C(F)(F)F)c1` [I-155], for which the pIC50 was 6.00 to 6.30.

`CNC(=O)c1cnc(Nc2ccccc2C)c(NC(=O)c2ccnc3ccccc23)c1` [I-157] showed a pIC50 of 4.00 to 5.00.

In turn, `CNC(=O)c1cnc(Nc2ccccc2C)c(NC(=O)c2nn(C)c3ccccc23)c1` [I-158] showed a pIC50 of 4.00 to 5.00.

`CNC(=O)c1cnc(Nc2ccccc2C)c(NC(=O)C2(c3ccc(C)cc3)CC2)c1` [I-160]: the pIC50 was 4.00 to 5.00.

The compound `CNC(=O)c1cnc(Nc2ccccc2C)c(NC(=O)Cc2cc(F)cc(F)c2)c1` [I-161] gave a pIC50 of 4.00 to 5.00.

Compound `CCC(C(=O)Nc1cc(C(=O)NC)cnc1Nc1ccccc1C)c1ccccc1` (stereo not shown) [I-162] showed a pIC50 of 4.00 to 5.00.

Consider `CNC(=O)c1cnc(Nc2ccccc2C)c(NC(=O)C2CCN(C(C)=O)CC2)c1` [I-163], for which the pIC50 is 4.00 to 5.00.

For `CNC(=O)c1cnc(Nc2ccccc2C)c(NC(=O)Cc2c(F)ccc(F)c2F)c1` [I-164], the pIC50 was 4.00 to 5.00.

The compound `CNC(=O)c1cnc(Nc2ccccc2C)c(NC(=O)[C@@H]2C[C@H]2c2ccccc2)c1` [I-165] gave a pIC50 of 4.00 to 5.00.

In the case of `CNC(=O)c1cnc(Nc2ccccc2C)c(NC(=O)C(c2ccccc2)C(C)C)c1` (stereo not shown) [I-166], the pIC50 was 4.00 to 5.00.

The compound `CNC(=O)c1cnc(Nc2ccccc2C)c(NC(=O)Cc2cn(C)c3ccccc23)c1` [I-167] had a pIC50 of 4.00 to 5.00.

As for `CNC(=O)c1cnc(Nc2ccccc2C)c(NC(=O)[C@@H](OC)c2ccccc2)c1` [I-169], the pIC50 is 4.00 to 5.00.

The compound `CNC(=O)c1cnc(Nc2ccccc2C)c(NC(=O)CC2CCc3ccccc32)c1` (stereo not shown) [I-170] showed a pIC50 of 4.00 to 5.00.

Compound `CNC(=O)c1cnc(Nc2ccccc2C)c(NC(=O)[C@]23C[C@H]4C[C@H](C[C@H](C4)C2)C3)c1` [I-171] had a pIC50 of 5.00 to 6.00.

`Cc1ccccc1Nc1ncc(-c2cnn(C)c2)cc1NS(=O)(=O)c1ccccc1` [I-172] showed a pIC50 of 4.00 to 5.00.

On to `CNC(=O)c1cnc(Nc2cccnc2C)c(NC(=O)c2cc(F)cc(C(F)(F)F)c2)c1` [I-173], for which the pIC50 is 4.00 to 5.00.

`CNC(=O)c1cnc(Nc2ccc(OC)cc2)c(NC(=O)c2cc(F)cc(C(F)(F)F)c2)c1` [I-174] showed a pIC50 of 4.00 to 5.00.

As to `CNC(=O)c1cnc(Nc2ccccc2C)c(NC(=O)c2n[nH]c3ccccc23)c1` [I-175], the pIC50 is 4.00 to 5.00.

Turning to `CNC(=O)c1cnc(Nc2ccccc2C)c(NC(=O)c2cnc3ccccc3c2)c1` [I-176], the negative logarithm of the IC50 (pIC50) is 4.00 to 5.00.

Turning to `CNC(=O)c1cnc(Nc2ccccc2C)c(NC(=O)c2cc(C(F)(F)F)cc(C(F)(F)F)c2)c1` [I-177], the pIC50 was 4.00 to 5.00.

`Cc1ccccc1Nc1ncc(NCC(=O)O)cc1NC(=O)c1cc(F)cc(C(F)(F)F)c1` [I-179] had a pIC50 of 5.00 to 6.00.

`CNC(=O)c1cnc(Nc2ccccc2C)c(NC(=O)c2ccc3ccccc3c2)c1` [I-182]: the pIC50 was 4.00 to 5.00.

On to `CNC(=O)c1cnc(Nc2ccccc2C)c(NC(=O)c2ccc3ncccc3c2)c1` [I-183], for which the negative logarithm of the IC50 (pIC50) is 4.00 to 5.00.

On to `CNC(=O)c1cnc(Nc2ccccc2C)c(NC(=O)c2cc3ccccc3cn2)c1` [I-184], for which the pIC50 is 4.00 to 5.00.

In turn, `CNC(=O)c1cnc(NCc2nccn2C)c(NC(=O)c2cc(F)cc(C(F)(F)F)c2)c1` [I-185] gave a pIC50 of 4.00 to 5.00.

The compound `Cc1ccccc1Nc1ncc(NCC(N)=O)cc1NC(=O)c1cc(F)cc(C(F)(F)F)c1` [I-186] gave a pIC50 of 5.00 to 6.00.

Consider `CNC(=O)c1cnc(Nc2ccccc2C)c(NC(=O)c2nc(SC)ncc2Cl)c1` [I-187], for which the negative logarithm of the IC50 (pIC50) is 4.00 to 5.00.

Take `CNC(=O)c1cnc(Nc2ccccc2C)c(NC(=O)c2cc(F)cc(C3CC3)c2)c1` [I-188]: the pIC50 is 5.00 to 6.00.

For `Cc1ccccc1Nc1ncc(C(=O)NCC2(O)CCCCC2)cc1NC(=O)c1csc2ccccc12` [I-189], the pIC50 was 6.00 to 6.30.

`Cc1ccccc1Nc1ncc(C(=O)Nc2cc[nH]c(=O)n2)cc1NC(=O)c1csc2ccccc12` [I-194]: the pIC50 was 6.00 to 6.30.

In turn, `CNC(=O)c1cnc(Nc2ccnc(C)c2)c(NC(=O)c2cc(F)cc(C(F)(F)F)c2)c1` [I-200] had a pIC50 of 4.00 to 5.00.

As to `CNC(=O)c1cnc(Nc2ccc(C)nc2)c(NC(=O)c2cc(F)cc(C(F)(F)F)c2)c1` [I-201], the pIC50 is 4.00 to 5.00.

Turning to `CNC(=O)c1cnc(N2CC3CCCN3CC2C)c(NC(=O)c2cc(F)cc(C(F)(F)F)c2)c1` (stereo not shown) [I-202], the pIC50 was 4.00 to 5.00.

Consider `CNC(=O)c1cnc(N)c(NC(=O)c2cc(F)cc(C(F)(F)F)c2)c1` [I-204], for which the pIC50 is 4.00 to 5.00.

These data come from patent US20250090540A1, “PI3K-ALPHA INHIBITORS AND METHODS OF USE THEREOF” (Relay Therapeutics, Inc., priority 2021, published 2025).
